How the values were obtained:
Assay in all cases: AUC of viability dose-response curve (% viability x log10 dose units); higher = less sensitive
Details in all cases: 48 h
NOMO1 = system: NOMO1
How it was run: (§1)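 Seeding of medium-adapted leukemia cells was at 500 or 1000 cells/well in 1536-well plates, followed by 48 h at 37°C with library compounds in DMSO at 11 threefold doses from 47 μM to 0.79 nM. CellTiter-Glo One luminescence was normalised per plate to DMSO and cell-free wells and fitted as a four-parameter log-logistic function of log10 dose. Area under the curve was integrated by trapezoidal rule, with curves exceeding full viability scaled and curves failing quality control removed.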

P12-Ichikawa = system: P12-Ichikawa
How it was run: as §1

SEM cells = system: SEM cells
How it was run: as §1

[1] = RPMI 5 mM glucose + 10% dialyzed FBS

SMILES: Nc1nc(NCCNc2ncc(-n3ccnc3)c(-c3ccc(Cl)cc3Cl)n2)ccc1[N+](=O)[O-]
- AUC of viability dose-response curve (NOMO1; HPLM + 10% dialyzed FBS): 460
- AUC of viability dose-response curve (NOMO1; RPMI 5 mM glucose + 10% FBS): 412
- AUC of viability dose-response curve (NOMO1; [1]): 442
- AUC of viability dose-response curve (P12-Ichikawa; HPLM + 10% dialyzed FBS): 464
- AUC of viability dose-response curve (P12-Ichikawa; RPMI 5 mM glucose + 10% FBS): 447
- AUC of viability dose-response curve (P12-Ichikawa; [1]): 466
- AUC of viability dose-response curve (SEM cells; HPLM + 10% dialyzed FBS): 452
- AUC of viability dose-response curve (SEM cells; RPMI 5 mM glucose + 10% FBS): 446
- AUC of viability dose-response curve (SEM cells; [1]): 450

SMILES: OCCN(CCO)c1nc(N2CCCCC2)c2nc(N(CCO)CCO)nc(N3CCCCC3)c2n1
- AUC of viability dose-response curve (NOMO1; HPLM + 10% dialyzed FBS): 459
- AUC of viability dose-response curve (NOMO1; RPMI 5 mM glucose + 10% FBS): 438
- AUC of viability dose-response curve (NOMO1; [1]): 465
- AUC of viability dose-response curve (P12-Ichikawa; HPLM + 10% dialyzed FBS): 459
- AUC of viability dose-response curve (P12-Ichikawa; RPMI 5 mM glucose + 10% FBS): 467
- AUC of viability dose-response curve (P12-Ichikawa; [1]): 463
- AUC of viability dose-response curve (SEM cells; HPLM + 10% dialyzed FBS): 454
- AUC of viability dose-response curve (SEM cells; RPMI 5 mM glucose + 10% FBS): 457
- AUC of viability dose-response curve (SEM cells; [1]): 461

SMILES: NNc1nncc2ccccc12
- AUC of viability dose-response curve (NOMO1; HPLM + 10% dialyzed FBS): 472
- AUC of viability dose-response curve (NOMO1; RPMI 5 mM glucose + 10% FBS): 461
- AUC of viability dose-response curve (NOMO1; [1]): 466
- AUC of viability dose-response curve (P12-Ichikawa; HPLM + 10% dialyzed FBS): 470
- AUC of viability dose-response curve (P12-Ichikawa; RPMI 5 mM glucose + 10% FBS): 452
- AUC of viability dose-response curve (P12-Ichikawa; [1]): 463
- AUC of viability dose-response curve (SEM cells; HPLM + 10% dialyzed FBS): 436
- AUC of viability dose-response curve (SEM cells; RPMI 5 mM glucose + 10% FBS): 454
- AUC of viability dose-response curve (SEM cells; [1]): 438

SMILES: CC(C)Cn1cnc2c(N)nc3ccccc3c21
- AUC of viability dose-response curve (NOMO1; HPLM + 10% dialyzed FBS): 450
- AUC of viability dose-response curve (NOMO1; RPMI 5 mM glucose + 10% FBS): 466
- AUC of viability dose-response curve (NOMO1; [1]): 448
- AUC of viability dose-response curve (P12-Ichikawa; HPLM + 10% dialyzed FBS): 442
- AUC of viability dose-response curve (P12-Ichikawa; RPMI 5 mM glucose + 10% FBS): 451
- AUC of viability dose-response curve (P12-Ichikawa; [1]): 463
- AUC of viability dose-response curve (SEM cells; HPLM + 10% dialyzed FBS): 459
- AUC of viability dose-response curve (SEM cells; RPMI 5 mM glucose + 10% FBS): 452
- AUC of viability dose-response curve (SEM cells; [1]): 455

SMILES: O=C(NCc1ccccc1)c1csc(Nc2ccncn2)n1
- AUC of viability dose-response curve (NOMO1; HPLM + 10% dialyzed FBS): 345
- AUC of viability dose-response curve (NOMO1; RPMI 5 mM glucose + 10% FBS): 331
- AUC of viability dose-response curve (NOMO1; [1]): 335
- AUC of viability dose-response curve (P12-Ichikawa; HPLM + 10% dialyzed FBS): 386
- AUC of viability dose-response curve (P12-Ichikawa; RPMI 5 mM glucose + 10% FBS): 358
- AUC of viability dose-response curve (P12-Ichikawa; [1]): 367
- AUC of viability dose-response curve (SEM cells; HPLM + 10% dialyzed FBS): 310
- AUC of viability dose-response curve (SEM cells; RPMI 5 mM glucose + 10% FBS): 287
- AUC of viability dose-response curve (SEM cells; [1]): 310

SMILES: NC(CO)C(=O)NNCc1ccc(O)c(O)c1O (stereo unspecified)
- AUC of viability dose-response curve (NOMO1; HPLM + 10% dialyzed FBS): 448
- AUC of viability dose-response curve (NOMO1; RPMI 5 mM glucose + 10% FBS): 431
- AUC of viability dose-response curve (NOMO1; [1]): 454
- AUC of viability dose-response curve (P12-Ichikawa; HPLM + 10% dialyzed FBS): 450
- AUC of viability dose-response curve (P12-Ichikawa; RPMI 5 mM glucose + 10% FBS): 435
- AUC of viability dose-response curve (P12-Ichikawa; [1]): 428
- AUC of viability dose-response curve (SEM cells; HPLM + 10% dialyzed FBS): 450
- AUC of viability dose-response curve (SEM cells; RPMI 5 mM glucose + 10% FBS): 439
- AUC of viability dose-response curve (SEM cells; [1]): 437

SMILES: COC(=O)C/1=C(C)/N/C(=C(\C1C2=CC(=CC=C2)[N+]([O-])=O)C(=O)OCCCN3CCC(CC3)(C4=CC=CC=C4)C5=CC=CC=C5)C (stereo unspecified)
- AUC of viability dose-response curve (NOMO1; HPLM + 10% dialyzed FBS): 439
- AUC of viability dose-response curve (NOMO1; RPMI 5 mM glucose + 10% FBS): 441
- AUC of viability dose-response curve (NOMO1; [1]): 464
- AUC of viability dose-response curve (P12-Ichikawa; HPLM + 10% dialyzed FBS): 453
- AUC of viability dose-response curve (P12-Ichikawa; RPMI 5 mM glucose + 10% FBS): 429
- AUC of viability dose-response curve (P12-Ichikawa; [1]): 445
- AUC of viability dose-response curve (SEM cells; HPLM + 10% dialyzed FBS): 458
- AUC of viability dose-response curve (SEM cells; RPMI 5 mM glucose + 10% FBS): 439
- AUC of viability dose-response curve (SEM cells; [1]): 441

SMILES: OC[C@H]1OC(OC2=CC3=C(C(=C2)O)C(=O)\C(=C/O3)C4=CC=C(O)C=C4)[C@H](O)[C@@H](O)[C@@H]1O (stereo partly specified)
- AUC of viability dose-response curve (NOMO1; HPLM + 10% dialyzed FBS): 391
- AUC of viability dose-response curve (NOMO1; RPMI 5 mM glucose + 10% FBS): 407
- AUC of viability dose-response curve (NOMO1; [1]): 372
- AUC of viability dose-response curve (P12-Ichikawa; HPLM + 10% dialyzed FBS): 405
- AUC of viability dose-response curve (P12-Ichikawa; RPMI 5 mM glucose + 10% FBS): 401
- AUC of viability dose-response curve (P12-Ichikawa; [1]): 391
- AUC of viability dose-response curve (SEM cells; HPLM + 10% dialyzed FBS): 408
- AUC of viability dose-response curve (SEM cells; RPMI 5 mM glucose + 10% FBS): 454
- AUC of viability dose-response curve (SEM cells; [1]): 451

SMILES: CC(C)n1cnc2c(NCCc3ccc(O)cc3)nc(-c3csc4ccccc34)nc21
- AUC of viability dose-response curve (NOMO1; HPLM + 10% dialyzed FBS): 393
- AUC of viability dose-response curve (NOMO1; RPMI 5 mM glucose + 10% FBS): 434
- AUC of viability dose-response curve (NOMO1; [1]): 433
- AUC of viability dose-response curve (P12-Ichikawa; HPLM + 10% dialyzed FBS): 371
- AUC of viability dose-response curve (P12-Ichikawa; RPMI 5 mM glucose + 10% FBS): 428
- AUC of viability dose-response curve (P12-Ichikawa; [1]): 422
- AUC of viability dose-response curve (SEM cells; HPLM + 10% dialyzed FBS): 424
- AUC of viability dose-response curve (SEM cells; RPMI 5 mM glucose + 10% FBS): 396
- AUC of viability dose-response curve (SEM cells; [1]): 388

SMILES: CO[C@@H]1[C@@H](O)[C@H](O)[C@@H](n2c3c(Cl)cccc3c3c4c(c5c6cccc(Cl)c6[nH]c5c32)C(=O)NC4=O)O[C@H]1CO
- AUC of viability dose-response curve (NOMO1; HPLM + 10% dialyzed FBS): 340
- AUC of viability dose-response curve (NOMO1; RPMI 5 mM glucose + 10% FBS): 323
- AUC of viability dose-response curve (NOMO1; [1]): 325
- AUC of viability dose-response curve (P12-Ichikawa; HPLM + 10% dialyzed FBS): 266
- AUC of viability dose-response curve (P12-Ichikawa; RPMI 5 mM glucose + 10% FBS): 259
- AUC of viability dose-response curve (P12-Ichikawa; [1]): 251
- AUC of viability dose-response curve (SEM cells; HPLM + 10% dialyzed FBS): 292
- AUC of viability dose-response curve (SEM cells; RPMI 5 mM glucose + 10% FBS): 254
- AUC of viability dose-response curve (SEM cells; [1]): 283

SMILES: O=[S+]([O-])(NCCNC/C=C/c1ccc(Br)cc1)c1cccc2cnccc12
- AUC of viability dose-response curve (NOMO1; HPLM + 10% dialyzed FBS): 452
- AUC of viability dose-response curve (NOMO1; RPMI 5 mM glucose + 10% FBS): 446
- AUC of viability dose-response curve (NOMO1; [1]): 425
- AUC of viability dose-response curve (P12-Ichikawa; HPLM + 10% dialyzed FBS): 462
- AUC of viability dose-response curve (P12-Ichikawa; RPMI 5 mM glucose + 10% FBS): 460
- AUC of viability dose-response curve (P12-Ichikawa; [1]): 458
- AUC of viability dose-response curve (SEM cells; HPLM + 10% dialyzed FBS): 377
- AUC of viability dose-response curve (SEM cells; RPMI 5 mM glucose + 10% FBS): 418
- AUC of viability dose-response curve (SEM cells; [1]): 354

SMILES: CN(C)CCc1c[nH]c2ccc(C[S+](=O)([O-])N3CCCC3)cc12
- AUC of viability dose-response curve (NOMO1; HPLM + 10% dialyzed FBS): 459
- AUC of viability dose-response curve (NOMO1; RPMI 5 mM glucose + 10% FBS): 468
- AUC of viability dose-response curve (NOMO1; [1]): 460
- AUC of viability dose-response curve (P12-Ichikawa; HPLM + 10% dialyzed FBS): 471
- AUC of viability dose-response curve (P12-Ichikawa; RPMI 5 mM glucose + 10% FBS): 466
- AUC of viability dose-response curve (P12-Ichikawa; [1]): 466
- AUC of viability dose-response curve (SEM cells; HPLM + 10% dialyzed FBS): 453
- AUC of viability dose-response curve (SEM cells; RPMI 5 mM glucose + 10% FBS): 427
- AUC of viability dose-response curve (SEM cells; [1]): 433

SMILES: N#Cc1ccc(NC(=O)Nc2ccccc2Br)c2nn[nH]c12
- AUC of viability dose-response curve (NOMO1; HPLM + 10% dialyzed FBS): 477
- AUC of viability dose-response curve (NOMO1; RPMI 5 mM glucose + 10% FBS): 463
- AUC of viability dose-response curve (NOMO1; [1]): 456
- AUC of viability dose-response curve (P12-Ichikawa; HPLM + 10% dialyzed FBS): 475
- AUC of viability dose-response curve (P12-Ichikawa; RPMI 5 mM glucose + 10% FBS): 457
- AUC of viability dose-response curve (P12-Ichikawa; [1]): 465
- AUC of viability dose-response curve (SEM cells; HPLM + 10% dialyzed FBS): 448
- AUC of viability dose-response curve (SEM cells; RPMI 5 mM glucose + 10% FBS): 473
- AUC of viability dose-response curve (SEM cells; [1]): 449

SMILES: CC(C)(C)C1=CC(=C(NC(=O)C/2=C/NC3=C(C=CC=C3)C2=O)C=C1O)C(C)(C)C
- AUC of viability dose-response curve (NOMO1; HPLM + 10% dialyzed FBS): 447
- AUC of viability dose-response curve (NOMO1; RPMI 5 mM glucose + 10% FBS): 462
- AUC of viability dose-response curve (NOMO1; [1]): 464
- AUC of viability dose-response curve (P12-Ichikawa; HPLM + 10% dialyzed FBS): 471
- AUC of viability dose-response curve (P12-Ichikawa; RPMI 5 mM glucose + 10% FBS): 452
- AUC of viability dose-response curve (P12-Ichikawa; [1]): 455
- AUC of viability dose-response curve (SEM cells; HPLM + 10% dialyzed FBS): 461
- AUC of viability dose-response curve (SEM cells; RPMI 5 mM glucose + 10% FBS): 467
- AUC of viability dose-response curve (SEM cells; [1]): 470
